Measured values from ChEMBL document CHEMBL3997763 (Medchemcomm, 2016).
Active and inactive are the calls of the source. The calls are words filed in the database; no cut-off is given here.

How the values were obtained:
Rattus norvegicus [1] = assay: Antihyperlipidemic activity in triton WR-1339 induced Charles Foster rat hyperlipidemia model assessed as inhibition of total cholesterol level in serum at 50 mg/kg, po administered simultaneously with triton WR-1339 after 18 hrs by enzymatic method relative to control; type: functional
Rattus norvegicus [2] = assay: Antihyperlipidemic activity in triton WR-1339 induced Charles Foster rat hyperlipidemia model assessed as inhibition of total cholesterol level in serum at 150 mg/kg, po administered simultaneously with triton WR-1339 after 18 hrs by enzymatic method relative to control; type: functional
[3] = target: T1, 3-hydroxy-3-methylglutaryl-coenzyme A reductase (Homo sapiens) (UniProt P04035); assay: Inhibition of human HMG-CoA reductase catalytic domain at 50 uM using HMG-CoA as substrate in presence of NADPH by colorimetric method relative to control
T1 sequence (whole entry): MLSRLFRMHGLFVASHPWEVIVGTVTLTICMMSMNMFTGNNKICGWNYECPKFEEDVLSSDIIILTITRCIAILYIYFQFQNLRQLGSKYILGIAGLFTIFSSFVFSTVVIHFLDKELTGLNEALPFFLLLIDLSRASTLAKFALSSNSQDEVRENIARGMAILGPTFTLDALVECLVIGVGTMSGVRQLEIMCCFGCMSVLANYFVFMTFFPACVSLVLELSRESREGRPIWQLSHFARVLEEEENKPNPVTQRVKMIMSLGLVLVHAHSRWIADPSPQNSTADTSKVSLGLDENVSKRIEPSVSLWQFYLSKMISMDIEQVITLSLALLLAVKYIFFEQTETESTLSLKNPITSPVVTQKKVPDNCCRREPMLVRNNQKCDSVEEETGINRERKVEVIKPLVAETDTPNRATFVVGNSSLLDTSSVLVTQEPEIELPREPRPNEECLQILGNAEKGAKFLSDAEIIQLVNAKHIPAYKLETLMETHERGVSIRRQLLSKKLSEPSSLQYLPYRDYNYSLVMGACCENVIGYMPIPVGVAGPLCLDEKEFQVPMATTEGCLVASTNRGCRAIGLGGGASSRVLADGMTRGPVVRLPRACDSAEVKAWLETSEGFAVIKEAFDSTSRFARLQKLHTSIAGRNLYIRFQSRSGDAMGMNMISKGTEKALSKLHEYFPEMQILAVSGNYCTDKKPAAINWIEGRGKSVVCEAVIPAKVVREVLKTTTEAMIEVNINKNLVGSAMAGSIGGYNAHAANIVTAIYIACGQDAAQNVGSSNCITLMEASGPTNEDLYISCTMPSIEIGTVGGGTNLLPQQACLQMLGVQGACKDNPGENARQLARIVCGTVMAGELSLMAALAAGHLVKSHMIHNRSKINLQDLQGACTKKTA

Rattus norvegicus [4] = assay: Hypolipidemic activity in HFD-induced Charles Foster rat assessed as reduction in serum VLDL-TC at 100 mg/kg administered as single dose via oral gavage for 30 days simultaneously with high fat diet; type: functional, organism-based
Rattus norvegicus [5] = assay: Hypolipidemic activity in HFD-induced Charles Foster rat assessed as reduction in serum LDL-TG at 100 mg/kg administered as single dose via oral gavage for 30 days simultaneously with high fat diet; type: functional, organism-based
Rattus norvegicus [6] = assay: Hypolipidemic activity in HFD-induced Charles Foster rat assessed as inhibition of hepatic HMG-CoA reductase activity by measuring […] at 100 mg/kg administered as single dose via oral gavage for 30 days simultaneously with high fat diet by colorimetric method; type: functional, organism-based

With `COc1ccc(-c2cc3cc(C(c4c[nH]c5ccccc45)c4c[nH]c5ccccc45)cc(C(C)(C)C)c3oc2=O)cc1OC` the inhibition in vivo at 50 mg/kg (Rattus norvegicus [1]) was 20%, the inhibition in vivo at 150 mg/kg (Rattus norvegicus [2]) was 33% and the inhibition [3] was 74%. The Activity (Rattus norvegicus [4]) was “Active”, the Activity (Rattus norvegicus [5]) was “Active” and the inhibition (Rattus norvegicus [6]) was “Active”.
